The values below come from patent US9714401B2, “Particles for malodor reduction” (The Procter & Gamble Company, priority 2015, dated 2017).

This assay can be described thus: Blocker Index (BI), expert graders smelling isovaleric acid + test material swatches against isovaleric acid reference scale. From the text:
Material selection is done by assigning two indices to a test sample material from two reference scales in order to rank odor strengths. The two reference scales are the Fragrance Fidelity Index (FFI) scale and the Blocker Index (BI) scale. The FFI ranks the ability of the test sample material to impart a perceivable odor which could cause interference when combined with another fragrance and the BI ranks the ability of the test sample material to reduce malodor perception. The two methods for assigning the indices to a test sample on the FFI and the BI reference scales are given below.
The first step in the method for assigning a BI to a test sample material on the BI reference scale is to create the BI reference swatches. […] Fabric swatches for this test are white knit polycotton (4 inch×4 inch) swatches from EMC ordered as PC 50/50. The supplier is instructed to strip the swatches first, stripping involves washing twice with a fragrance-free detergent and rinsing three times.
The BI scale contains one clean swatch with no malodor applied. […] These solutions are pipetted to the middle of the swatches. […] After drying for 30 minutes in a vented hood, the swatches are wrapped in aluminum foil to prevent odor contamination to the treated swatch. A clean untreated swatch is also included as the lowest anchor point of reference for malodor strength on the BI scale. […]

Take `COC(=O)OC1CCC=CCCC1` (centres unmarked) [Material 1139]: the BI runs as follows: (Conc 10 ppm test material on swatch with 20 μL 0.08% isovaleric acid) 2.0; (Conc 50 ppm test material on swatch with 20 μL 0.08% isovaleric acid) 2.7.
